According to US20060135569A1, “Use of benzisoselenazolone compounds against ischemic myocardial damage” (priority 2002, published 2006):
Marks after values point to notes of the source that are not given here.

What was measured:
[1] = test system: acute myocardial ischemia in anesthetized dogs; test: Acute myocardial ischemia and infarction in anesthetized dogs; assay type: in vivo, dog
Procedure: Dogs were divided into three groups: 1, vehicle control group, PEG 1 ml/kg, n=5; 2, dilthiazem group, 5 mg/kg, n=5; 3, IMM-004 group, 30 mg/kg, n=5. The tested drugs were prepared in distilled water at volume of 1 ml/kg. The tested items were administrated via duodenum by animals.

[2] = biological target: T1, Na^+/Ca^2+ exchanger (Cavia porcellus, UniProt P48766); test: Na^+/Ca^2+ exchange current (INa—Ca), whole-cell patch clamp, intracellular Na^+ overload cell model; assay type: cell-based, guinea pig
T1 construct: endogenous in cells; host or cells: freshly isolated guinea pig ventricular myocytes
Description: 1. Establishment of Assaying Method for Biphasical Current Detection in Na^+/Ca^2+ Exchange System
Since the reverse mode of Na^+/Ca^2+ exchange process is one of the main mechanisms involving in ischemia/reperfusion insult, it is of great importance to establish cell model represented reverse mode Na^+/Ca^2+ exchange process for the development of drugs against ischemic injury. Therefore, we successfully established cell model of reverse mode Na^+/Ca^2+ exchange system by intracellular Na^+ dialysis technique, and recorded Na^+/Ca^2+ exchange currents by patch clamp experiment.
Internal solution contained certain concentration of NaCl was filled to the microcatheter, and ion exchange process between the cellular and internal solutions was conducted after whole cell currents were recorded by patch clamp. Na^+ contained in the internal solution was dialyzed into the cell; result in the high intracellular Na^+ concentration. After that, the cell was champed at a holding potential of −40 mV, then depolarized to +60 mV and followed by a conversely declining ramp stimuli at a speed of 80 mV·s^−1 and 2 s conditioning pulse, then repolarized to −100 mV with a frequency of 0.05 Hz. Under the stimulation protocol, current from outward to the inward direction was recorded by perfusing modified biphasical Tyrode solution (in which the outward and inward currents can be recorded simultaneously) with the addition of 1 mmol·L^−1 of BaCl2 and 2 mmol·L^−1 of CsCl to block K^+ channels, 1 μmol·L^−1 of verapamil to block L-type Ca^2+ channels, and 20 μmol·L^−1 of ouabain to block Na^+/K^+ ATPase, and 20 mmol·L^−1 of TEA to block potassium channels. The recorded inward currents were presented in a linear manner owing to the blockade of other time-dependent currents. With the increase of intracellular Na^+ level and prolongation of time, the reverse mode of Na^+/Ca^2+ exchange process was activated. […] Under such experimental conditioning, the maximum reverse mode current was recorded 3 min after cell crushed. No significant “run-down” was observed within the record period of 8 minutes. The inward and outward current were inhibited by 5 mmol·L^−1 of Ni^2+ treatment, and the experiment result in two current-voltage curves in the absence or presence of Ni^2+. The Ni^2+ sensitive current, also called electrophysiological Na^+/Ca^2+ exchange current (INa·Ca), was the minus result of two current-voltage curves. The reverse mode potential of INa—Ca was about −20 mV
Male guinea pigs weighting 250˜280 g provided by the Animal Center of the Chinese Academy of Medical Sciences were hammered and sacrificed. The chest was opened and the heart was removed quickly. Fatty tissue and pericardium were removed in a Ca^2+-free solution at 4° C., and heart was sequentially mounted on a Langendorff apparatus. First, the heart was perfused conversely via the aorta for 6 min with Ca^2+-free solution in order to wash out residual blood, then the heart expands and the color of it turns to pink. Then the heart was perfused with Ca^2+-free solution containing 0.1 mg/ml of pronase E, 0.5 mg/ml defatted bovine serum albumin (BSA) and 150 μM Ca^2+ for 2˜3 min, until the heart expanded and became soft. The atrium was removed, and the digested heart was minced with scissors, stirred in a beaker at 37° C. for 5˜10 min. The supernatant was diluted with Ca^2+-free solution containing 0.5 mg/ml BSA and 1.8 mM Ca^2+. The supernatant was placed at room temperature (20˜24° C.) for 1 hr and then subjected to the experiment. During the whole perfusion period, pressure was kept at 70 cmH2O and the temperature of solution was kept at 37° C. with continuously gassed with 95% O2 and 5% CO2.
Rod-shaped cells with clear striations and intact membrane were used. […]

[3] = test system: TA97; TA98; TA100; TA102; test: Ames (mutagenesis) test, overall result in 4 strains; assay type: cell-based; details: 0.5, 5, 50 and 500 μg/dish
Procedure: (§1) To assess the mutagenic effects of 5 compounds (IMM-004; IMM-065; IMM-127; IMM-128; IMM-313), the Ames test was performed in 4 strains (TA97; TA98; TA100; TA102). The experiment was conducted with compounds at 4 concentration levels (0.5, 5, 50 and 500 μg/dish). […]

[4] = test system: TA98; test: Ames test, strain TA98; assay type: cell-based
Procedure: as §1

[5] = test system: TA100; test: Ames test, strain TA100; assay type: cell-based
Procedure: as §1

[6] = test system: TA102; test: Ames test, strain TA102; assay type: cell-based
Procedure: as §1

[7] = test system: isolated rat hearts subjected to ischemia-reperfusion (I/R); test: Isolated heart subjected to ischemia/reperfusion injury (arrhythmia); details: for AAT: arrhythmic occurrence time, Time / VF (ventricular fibrillation) Incidence rate (%) / VPS (ventricular premature beats) Incidence rate (%) / VT (ventricular tachycardia) Incidence rate (%): 10^−6 M, isolated heart ischemia/reperfusion
Procedure: Based on the pre-electrophysiological cell model screening, we have compared the inhibition ratios of the outward current by reverse-transportation of Na^+/Ca^2+ exchange, and further in vitro tests on isolated rat hearts subjected to ischemia-reperfusion (I/R) were conducted. Prolongation of ventricular arrhythmic, incidence rate of ventricular extrasystole, ventricular tachycardia/ventricular fibrillation (VT/VF) were recorded to evaluate the protective actions of drugs on myocardial injury.
On the basis of above screening results obtained from electrophysiological studies, and the result from comparative study on the research of the inhibitory effect of compounds on reverse mode Na^+/Ca^2+ exchange process, 7 effective compounds were subjected to in vitro study. Among which, IMM-313, IMM-004 and IMM-132 have structures containing chlorine; IMM-127, IMM-128 and IMM-129 have structures containing fluorine; and IMM-065 has a structure containing OH. The experiment performed in the isolated heart subjected to ischemia/reprefusion insult. Prolongation of ventricular arrhythmic, incidence of ventricular extrasystole, ventricular tachycardia/ventricular fibrillation (VT/VF) were recorded in order to evaluate the protective actions of drugs on myocardial injury.

[8] = test system: arrhythmia caused by ischemia/reperfusion insults in anaesthetic rats; test: Ischemia/reperfusion arrhythmia in anaesthetic rats, intravenous injection; assay type: in vivo, rat; details: 3 mg/Kg intravenous (femoral vein), rats
Description: (1) Protective Effects of the Tested Compounds on Myocardial Insults in Rats after Intravenously Injection
Arrhythmic potency induced by myocardial insults was used to assess the potential protective effect of the compounds.

[9] = test system: TA97; test: Ames test, strain TA97; assay type: cell-based
Procedure: as §1

[10] = N-BT staining, Dilthiazem 5 mg/kg, IMM-004 30 mg/kg, % according to b137
[11] = Example 1 table, myocardial cell
[12] = screening of 22 candidate compounds

COc1ccc([C@@H]2Sc3ccccc3N(CCN(C)C)C(=O)[C@@H]2OC(C)=O)cc1 [Dilthiazem, reference compound]
blood oxygen concentration ([1]; 5 mg/kg): Significant increase | myocardial oxygen consumption ([1]; 5 mg/kg): decrease | severity of myocardial ischemia (Σ-ST), in words ([1]; 5 mg/kg via duodenum, from 90 min, lasted for 180 min after administration): reduced | Infarction area/ heart area [1, 10]: 1.54 ± 0.40 | Infarction area/ventricle area [1, 10]: 3.54 ± 3.74 | Infarction area mm^2 ([1]; N-BT staining, Dilthiazem 5 mg/kg, IMM-004 30 mg/kg, X ± SD): 186.50 ± 21.2*** mm^2 | Myocardial infarction size, in words ([1]; N-BT staining, IMM-004 30 mg/kg, dilthiazem 5 mg/kg): significantly reduced | Coronary flows, in words ([1]; after treatment, dilthiazem 5 mg/kg, IMM-004 30 mg/kg): significantly increased

C/C(=N\O)c1ccc(-n2[se]c3ccccc3c2=O)cc1 [IMM-065]
Inhibitory rate of inward INa—Ca (%) [2, 11]: 43% | Inhibitory rate of outward INa—Ca (%) [2, 11]: 55% | Inhibitory rate of inward INa—Ca (%) [2, 12]: 43% | Inhibitory rate of outward INa—Ca (%) [2, 12]: 55* % | mutagenic effect (Ames test) [3]: No evidence for a mutagenic effect | TA98 +S9 ([4]; 0.5 μg/dish): 56.50 ± 4.50 | TA98 −S9 ([4]; 0.5 μg/dish): 52.00 ± 3.74 | TA98 +S9 ([4]; 5 μg/dish): 61.67 ± 11.15 | TA98 −S9 ([4]; 5 μg/dish): 42.00 ± 10.80 | TA98 +S9 ([4]; 50 μg/dish): 42.00 ± 5.72 | TA98 −S9 ([4]; 50 μg/dish): 45.33 ± 5.44 | TA98 +S9 ([4]; 500 μg/dish): 168.00 ± 32.00 | TA98 −S9 ([4]; 500 μg/dish): 54.00 ± 12.83 | TA100 +S9 ([5]; 0.5 μg/dish): 176.67 ± 24.57 | TA100 −S9 ([5]; 0.5 μg/dish): 153.67 ± 13.47 | TA100 +S9 ([5]; 5 μg/dish): 167.00 ± 58.86 | TA100 −S9 ([5]; 5 μg/dish): 60.33 ± 19.91 | TA100 +S9 ([5]; 50 μg/dish): 180.33 ± 29.83 | TA100 −S9 ([5]; 50 μg/dish): 108.67 ± 6.79 | TA100 +S9 ([5]; 500 μg/dish): 0 | TA100 −S9 ([5]; 500 μg/dish): 62.33 ± 20.53 | TA102 +S9 ([6]; 0.5 μg/dish): 270.00 ± 10.00 | TA102 −S9 ([6]; 0.5 μg/dish): 244.00 ± 12.33 | TA102 +S9 ([6]; 5 μg/dish): 308.00 ± 31.16 | TA102 −S9 ([6]; 5 μg/dish): 246.00 ± 24.00 | TA102 +S9 ([6]; 50 μg/dish): 339.33 ± 48.99 | TA102 −S9 ([6]; 50 μg/dish): 217.33 ± 15.43 | TA102 +S9 ([6]; 500 μg/dish): 287.33 ± 41.89 | TA102 −S9 ([6]; 500 μg/dish): 215.00 ± 75.59 | protective effects on myocardial insults ([7]; 10^−6M, isolated heart): significant protective effects | AAT: arrhythmic occurrence time, Time [7]: 13.09 ± 3.76 min | VF (ventricular fibrillation) Incidence rate (%) [7]: 50% | VPS (ventricular premature beats) Incidence rate (%) [7]: 30% | VT (ventricular tachycardia) Incidence rate (%) [7]: 70% | incidence and duration of VT, VF, VE / ventricular arrhythmic [8]: no significant effect | TA97 +S9 ([9]; 0.5 μg/dish): 249.33 ± 35.83 | TA97 −S9 ([9]; 0.5 μg/dish): 62.67 ± 4.49 | TA97 +S9 ([9]; 5 μg/dish): 76.00 ± 15.29 | TA97 −S9 ([9]; 5 μg/dish): 73.67 ± 6.64 | TA97 +S9 ([9]; 50 μg/dish): 82.67 ± 12.92 | TA97 −S9 ([9]; 50 μg/dish): 69.67 ± 3.77 | TA97 +S9 ([9]; 500 μg/dish): 0 | TA97 −S9 ([9]; 500 μg/dish): 59.67 ± 0.94

O=c1c2cc(F)ccc2[se]n1-c1cccnc1 [IMM-128, 5-fluoro-2-(3-pyridyl)-1,2-benz-isoselenazol-3(2H)-one]
Inhibitory rate of inward INa—Ca (%) [2, 11]: 42% | Inhibitory rate of outward INa—Ca (%) [2, 11]: 44% | Inhibitory rate of inward INa—Ca (%) [2, 12]: 42% | Inhibitory rate of outward INa—Ca (%) [2, 12]: 44* % | mutagenic effect (Ames test) [3]: No evidence for a mutagenic effect | TA98 +S9 ([4]; 0.5 μg/dish): 40.67 ± 16.05 | TA98 −S9 ([4]; 0.5 μg/dish): 64.00 ± 6.48 | TA98 +S9 ([4]; 5 μg/dish): 46.00 ± 3.00 | TA98 −S9 ([4]; 5 μg/dish): 69.33 ± 12.81 | TA98 +S9 ([4]; 50 μg/dish): 56.00 ± 9.63 | TA98 −S9 ([4]; 50 μg/dish): 71.33 ± 12.26 | TA98 +S9 ([4]; 500 μg/dish): 31.33 ± 6.24 | TA98 −S9 ([4]; 500 μg/dish): 83.67 ± 5.79 | TA100 +S9 ([5]; 0.5 μg/dish): 167.33 ± 17.98 | TA100 −S9 ([5]; 0.5 μg/dish): 127.33 ± 20.04 | TA100 +S9 ([5]; 5 μg/dish): 149.67 ± 19.60 | TA100 −S9 ([5]; 5 μg/dish): 116.50 ± 30.50 | TA100 +S9 ([5]; 50 μg/dish): 141.33 ± 16.36 | TA100 −S9 ([5]; 50 μg/dish): 135.00 ± 14.99 | TA100 +S9 ([5]; 500 μg/dish): 107.67 ± 13.47 | TA100 −S9 ([5]; 500 μg/dish): 100.00 ± 33.67 | TA102 +S9 ([6]; 0.5 μg/dish): 277.33 ± 15.17 | TA102 −S9 ([6]; 0.5 μg/dish): 214.67 ± 8.22 | TA102 +S9 ([6]; 5 μg/dish): 234.67 ± 80.37 | TA102 −S9 ([6]; 5 μg/dish): 270.67 ± 12.04 | TA102 +S9 ([6]; 50 μg/dish): 333.00 ± 60.83 | TA102 −S9 ([6]; 50 μg/dish): 210.00 ± 31.54 | TA102 +S9 ([6]; 500 μg/dish): 274.00 ± 37.98 | TA102 −S9 ([6]; 500 μg/dish): 296.00 ± 22.86 | AAT: arrhythmic occurrence time, Time [7]: 22.10 ± 3.49 min | VF (ventricular fibrillation) Incidence rate (%) [7]: 50% | VPS (ventricular premature beats) Incidence rate (%) [7]: 25% | VT (ventricular tachycardia) Incidence rate (%) [7]: 50% | TA97 +S9 ([9]; 0.5 μg/dish): 70.00 ± 11.86 | TA97 −S9 ([9]; 0.5 μg/dish): 59.33 ± 10.27 | TA97 +S9 ([9]; 5 μg/dish): 63.00 ± 31.00 | TA97 −S9 ([9]; 5 μg/dish): 52.67 ± 3.21 | TA97 +S9 ([9]; 50 μg/dish): 60.33 ± 17.59 | TA97 −S9 ([9]; 50 μg/dish): 59.00 ± 3.56 | TA97 +S9 ([9]; 500 μg/dish): 78.50 ± 21.50 | TA97 −S9 ([9]; 500 μg/dish): 65.33 ± 2.35
